Results from patent US20140255341A1, “Tumor Selective Chemokine Modulation” (priority 2011, published 2014).

Experiments:
[1] = test system: liver-metastatic colorectal cancer tissues versus marginal liver tissues; test: Chemokine production in matched liver-metastatic tumor and marginal liver tissues (ELISA, Taqman); format: cell-based, human; conditions: tumor tissues, NF-κB inhibitor at 20 μM
Procedure: (§1) FIG. 9. Selective induction of CXCL10 and CCL5 in liver metastases compared to normal liver tissues: role of NF-κB. Matched samples of marginal liver tissues and liver-metastatic colorectal cancer tissues (3 biopsies in 1 ml in 24 well plate), were cultured for 24 hrs either untreated or treated with IFNα+poly-I:C+indomethacin and (A) analyzed for CCL5 and CXCL10 expression by Taqman. […] The supernatants were analyzed for CCL5 production by ELISA (see matched CXCL10 data in FIG. 4). (C) CAY10470 (20 μM) effects on liver glycogen phosphorylase mRNA expression in matched marginal liver tissue and liver-metastatic colorectal cancer.
Using matched tissue samples from 10 patients with metastatic colon cancer, we compared the responsiveness to the chemokine-modulating regimen between liver-metastatic tumor tissues and marginal tissues. […] This increased responsiveness of tumors compared to marginal tissues was not due to decreased survival of the marginal tissues, as determined by undisturbed expression levels of glycogen phosphorylase (FIG. 9C).

[2] = test system: marginal liver tissue and liver-metastatic colorectal cancer; test: Glycogen phosphorylase mRNA expression as check of tissue survival; format: cell-based, human; conditions: at 20 μM
Procedure: as §1
CAY10470, used in these experiments (at 20 μM), was non-toxic, as shown by similar expression of glycogen phosphorylase mRNA in untreated and treated tissues (FIG. 9C).

macrophages = test: Chemokine production by in vitro generated macrophages, ELISA of 48 hr. cultures; format: cell-based
Procedure: FIG. 5. […] Data from one representative experiment of three. […] The concentrations of chemokines in 48 hr. cultures were analyzed by ELISA. […] In order to test the possibility of correcting the chemokine environment in the tumors with low ratios of Teff- to Treg-attracting chemokines, we tested in pilot studies the feasibility of modulating their production using different combinations of IFNα, indomethacin (COX1/2 inhibitor) and poly-I:C in individual populations of tumor-relevant cells (known to infiltrate tumors), such as macrophages, or fibroblasts.

[3] = test system: colorectal cancer tumor tissues; test: Ex vivo tumor/tissue explant culture, chemokine ELISA; format: cell-based, human; conditions: for CCL5 expression / production / CXCL10 expression / production: tumor tissues ex vivo, 48 hours, ELISA
Procedure: FIG. 6. […] (A) Fresh tumor samples from 11 patients with metastatic colorectal cancer were untreated or treated with IFNα and poly-I:C either individually or in combination for 48 hours. The release of CCL5 and CXCL10 into culture media was analyzed by ELISA. Numbers indicate the prevalence of tumors with each chemokine pattern (respective patterns A, B or C). (B) ELISA analysis of CCL5, CCL22 and CXCL10 in tumors untreated or treated with IFNα+pI:C, with or without indomethacin. (C) Heterogeneous response of different tumor lesions from the same patient (CCL5 and CXCL10 production) to the individual components of the chemokine-modulating cocktail. (D) Indomethacin and celecoxib enhance the IFNα/poly-I:C-induced Teff-attracting chemokine expression, but suppress Treg-attracting chemokine expression in colorectal cancer lesions. All cultures were for 48 hr. Combined data from the tumors of 3 different patients (n=3).
FIG. 7. […] (A) In-situ hybridization for respective chemokine mRNA (black grains) in tumor biopsies which were either left untreated or treated with the combination of indomethacin, IFNa and poly-I:C (IAP). (B) ELISA analysis of the chemokine contents in the supernatants of 48 hour-cultured tumor tissues (untreated or treated) from 10 different patients.
In order to test the feasibility of using these factors to manipulate the complex microenvironment of whole tumor tissues, involving all the above cell types and their interactions, we used an ex vivo tumor/tissue explant culture system previously developed to study migration of DCs. This system allowed us to avoid nonspecific activation of the chemokine-producing cells during tumor dissociation.

melanoma tissue = melanoma tissue ex vivo, increasing concentrations of melphalan
Procedure: FIG. 13. […] Tumor biopsies were cultured ex vivo in the presence of increasing concentrations of melphalan in the absence or presence of the triple combination (CAP) of the Celecoxib, IFNα and poly-I:C. Secretion levels of CC22 and CXCL10 were measured by ELISAs.

fibroblasts = test: Chemokine production by fibroblasts, ELISA of 48 hr. cultures; format: cell-based
Excerpt: FIG. 5. Interplay between COX inhibitor indomethacin, IFNα and poly-I:C in the induction of a desirable patterns of chemokine expression in isolated cell cultures. (A) Dose-dependent impact of IFNa and poly-I:C on the production of Teff-, and Treg-attracting chemokines by in vitro generated macrophages (see M&M) and in fibroblasts (obtained from Cascade Biological). Data from one representative experiment of three. (B) Effects of indomethacin on Teff-, and Treg-attracting chemokines produced by macrophages (N=3) by ELISA analysis. The concentrations of chemokines in 48 hr. cultures were analyzed by ELISA.
In order to test the possibility of correcting the chemokine environment in the tumors with low ratios of Teff- to Treg-attracting chemokines, we tested in pilot studies the feasibility of modulating their production using different combinations of IFNα, indomethacin (COX1/2 inhibitor) and poly-I:C in individual populations of tumor-relevant cells (known to infiltrate tumors), such as macrophages, or fibroblasts.

[4] = whole tumor tissues, COX inhibitor added to IFNα and poly-I:C

In the case of `Nc1ccc2ncnc(NCCc3ccc(Oc4ccccc4)cc3)c2c1` [CAY10470], the “CCL5 up-regulation by the chemokine-modulating regimen” value [1] is reported as “blocked”, the “CXCL10 induction by IFNα/poly-I:C/indomethacin” value [1] is reported as “completely abrogated” and the “toxicity (expression of glycogen phosphorylase mRNA in untreated and treated tissues)” value [2] is reported as “non-toxic”.

With `COc1ccc2c(c1)c(CC(=O)O)c(C)n2C(=O)c1ccc(Cl)cc1` [indomethacin] the “production of CCL22” value (macrophages) was “suppression of CCL22 production”, the “effects of IFNα and poly-I:C on Teff- and Treg-attracting chemokines (CCL5, CXCL10 induction, CCL22 suppression)” value (macrophages; indomethacin added) was “further potentiated” and the “IFNα/poly-I:C-induced Teff-attracting chemokine expression” value ([3]; colorectal cancer lesions, 48 hr, tumors of 3 patients) was “enhance”. The Treg-attracting chemokine expression ([3]; colorectal cancer lesions, with IFNα/poly-I:C, 48 hr, tumors of 3 patients) was “suppress”, the CCL22 levels [3, 4] was “reduced” and the “production of CCL5 induced by the combination IFNα and poly-I:C” value [3, 4] was “further enhanced”. The “production of CXCL10 induced by the combination IFNα and poly-I:C” value [3, 4] was “further enhanced”.

With `N[C@@H](Cc1ccc(N(CCCl)CCCl)cc1)C(=O)O` [melphalan] the “ratio between Treg-attracting and Teff-attracting chemokines (CCL22/CXCL10)” value (melanoma tissue) was “undesirable elevation”.

IFNα was tested, and the “production of CCL22” value (macrophages) was “strong suppressive effect”, the “production of CCL22” value (fibroblasts) was “strong suppressive effect” and the “CCL5 expression / production” value [3] was “variable chemokine expression”. The “CXCL10 expression / production” value [3] was “variable chemokine expression”.

In the case of “polyinosinic-polycytidylic acid [poly-I:C]”, the “CCL5 expression / production” value [3] is reported as “variable chemokine expression” and the “CXCL10 expression / production” value [3] is reported as “variable chemokine expression”.
